The record followed here is ChEMBL document CHEMBL1147058, “An antibiotic produced by an insect-pathogenic bacterium suppresses host defenses through phenoloxidase inhibition” (Proc Natl Acad Sci U S A, 2007).

Data set [1] has as its target T1, Prophenoloxidase (Manduca sexta) (UniProt Q0VJU6).
T1 sequence (whole entry): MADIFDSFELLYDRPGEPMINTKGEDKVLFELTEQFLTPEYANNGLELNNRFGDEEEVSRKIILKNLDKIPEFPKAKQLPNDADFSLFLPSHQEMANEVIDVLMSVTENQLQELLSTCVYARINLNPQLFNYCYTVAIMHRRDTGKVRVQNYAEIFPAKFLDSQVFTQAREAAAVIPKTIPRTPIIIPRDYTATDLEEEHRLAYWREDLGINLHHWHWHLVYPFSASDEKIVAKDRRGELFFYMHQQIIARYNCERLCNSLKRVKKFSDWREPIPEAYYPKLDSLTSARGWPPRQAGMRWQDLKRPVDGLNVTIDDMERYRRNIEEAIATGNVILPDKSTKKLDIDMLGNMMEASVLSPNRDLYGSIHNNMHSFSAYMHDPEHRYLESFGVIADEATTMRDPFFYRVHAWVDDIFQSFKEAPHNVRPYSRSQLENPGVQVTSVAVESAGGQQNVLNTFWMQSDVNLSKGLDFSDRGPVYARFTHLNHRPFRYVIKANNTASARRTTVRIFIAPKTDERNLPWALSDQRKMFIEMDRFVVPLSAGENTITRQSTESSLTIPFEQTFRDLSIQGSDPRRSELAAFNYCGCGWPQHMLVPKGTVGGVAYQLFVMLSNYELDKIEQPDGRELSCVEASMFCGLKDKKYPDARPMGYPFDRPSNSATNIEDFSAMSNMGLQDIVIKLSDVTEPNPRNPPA
In words: Inhibition of Manduca sexta phenoloxidase at 60 uM.

A further data set concerns Manduca sexta. Briefly: Inhibition of immune system assessed as suppression of melanotic nodule formation in Photorhabdus luminescens TT01 infected Manduca sexta. In kind it is functional, organism-based.
For data set [2], the system named is Photorhabdus luminescens. Briefly: Induction of virulence of Photorhabdus luminescens TT01 assessed as decrease in survival of Photorhabdus luminescens TT01 infected Manduca sexta. In kind it is functional.
Data set [3] deals with Photorhabdus luminescens. Briefly: Induction of virulence of Photorhabdus luminescens TT01 assessed as decrease in survival of Photorhabdus luminescens TT01 infected Manduca sexta in presence of cinnamic acid. The format is functional.
For data set [4], the system named is Photorhabdus luminescens. Briefly: Induction of virulence of Photorhabdus luminescens TT01 assessed as increase in proliferation of Photorhabdus luminescens TT01 in Manduca sexta. In kind it is functional.
A short description of data set [5]: Drug level in Photorhabdus luminescens TT01 infected Manduca sexta hemolymph after 24 hrs by TLC plate method. In kind it is ADME, tissue-based. The conditions noted are these: read-out: Drug uptake.
Data set [6] relates to Photorhabdus luminescens. Briefly: Induction of virulence of Photorhabdus luminescens TT01 assessed as increase in proliferation of Photorhabdus luminescens TT01 in Manduca sexta in presence of cinnamic acid. The format is functional.
Data set [7] concerns Photorhabdus luminescens. Briefly: Induction of virulence of stlA deficient Photorhabdus luminescens BMM901 assessed as decrease in survival of Photorhabdus luminescens BMM901 infected Manduca sexta in presence of cinnamic acid. The format is functional.
The subject of data set [8] is Photorhabdus luminescens. Briefly: Induction of virulence of stlA deficient Photorhabdus luminescens BMM901 assessed as increase in proliferation of Photorhabdus luminescens BMM901 in Manduca sexta in presence of cinnamic acid. In kind it is functional.

Each structure is given as a SMILES string. Calls of active or inactive are those of the source. The calls are words filed in the database; no cut-off is given here.

`CC(C)c1c(O)cc(/C=C/c2ccccc2)cc1O` [TAPINAROF]: the Activity result in data set [1] is “Dose-dependent effect”. The outcome with Manduca sexta, in the data set with Photorhabdus luminescens [2], with Photorhabdus luminescens [3], with Photorhabdus luminescens [4], in the data set on Photorhabdus luminescens [6] and in the data set on Photorhabdus luminescens [7] was Active. For the same compound, the outcome in the data set with Photorhabdus luminescens [8] was Active. Moreover, in [5], the concentration at 24 h worked out at 275 µg/mL.
